This is an account of results in ChEMBL document CHEMBL1151725, “A cell wall-active lipopeptide from the fungus Pochonia bulbillosa” (2008).

In this assay the test system is Neurospora crassa. The experiment in a line: Antifungal activity against Neurospora crassa os-1 mutant assessed as zone of protoplast production at 600 ng/disk after 36 to 48 hrs by microscopic examination. Type of assay: functional.

Turning to `CCCCCCCCCC(O)CCCC(=O)N[C@H](C(=O)N[C@H](C)C(=O)N[C@@H](C)C(=O)N[C@@H](C)C(=O)N[C@H](Cc1ccc(O)cc1)C(=O)N[C@H](C(=O)O)C(C)C)[C@@H](C)O` (stereo partly specified), the Activity was 20 mm.
